Data published in patent US6884882B1, “2′-deoxyuridine derivatives and hydrogels formed therewith” (Postech Foundation, priority 2004, dated 2005).
Entries after “also recorded” stand apart in the source; their conditions may differ.

Experiments:
Format in all cases: physicochemical
[1] = Gelation test (stable-to-inversion-of-the-container method) in water; details: for State: 2 wt % in water, dissolved by sonication and heating, cooled at room temperature for 20 minutes, vessel inverted; for Minimum gel concentration: minimum concentration at which a gel was formed in water; for gelation ability: in water, judged from Table 1
Protocol: In order to determine the extent of gelation of the 2′-deoxyuridine derivative of the present invention, the “stable-to-inversion-of-the-container” method was performed (see F. M. Menger and K. L Caran., J. Am. Chem. Soc., 122, 11679, 2000).
Each of 2′-deoxyuridine derivatives prepared in Example 1 was mixed with water in an amount corresponding to a concentration of 2 wt %, completely dissolved by sonication and heating, and then cooled at room temperature for 20 minutes to induce the formation of a gel. Then, the vessel containing the gel was inverted to see whether or not the content poured out.
Further, the minimum concentration at which a gel was formed (hereinafter, minimum gel concentration) was measured for each of the 2′-deoxyuridine derivatives.

[2] = Observation of inner structures of gels by Scanning Electron Microscopy (SEM); details: for gel structure in SEM image: gel prepared by the method of Example 2, lyophilized, platinum coated
Protocol: The aggregation mode of the gel formed with the 2′-deoxyurindine derivative was observed by Scanning Electron Microscopy (SEM). Gels were prepared using the 2′-deoxyuridine derivatives prepared in 1-4), 1-7), 1-9) and 1-10) by the method of Example 2. Each of the gels was heated to obtain a sol, and a small amount of the sol was converted to a gel cake, which was lyophilized under a vacuum at the liquid nitrogen temperature to remove the solvent, coated with platinum, and examined by SEM.

[3] = Analysis of thermal stability of hydrogel by differential scanning calorimetry; details: DSC, 30 to 220° C., FIG. 3
Protocol: In order to examine the thermal stability of the 2′-deoxyuridine derivative of the present invention, 1 to 4 mg of the derivative prepared in 1-9) was shaped in the form of a pellet, and differential scanning calorimetry was performed therewith at a temperature ranging from 30 to 220° C.

Structure (SMILES) | State [1] | Minimum gel concentration [1] | gel structure in SEM image [2] | gelation ability [1] | gel structure in SEM image on lowering the concentration ([2]; concentration lowered from 2 to 0.25 wt %, FIG. 2) | melting point peak of the gel phase [3] | melting point peak of the solid phase [3]
Cc1ccccc1Cn1cc(-c2cn([C@H]3C[C@H](O)[C@@H](CO)O3)c(=O)[nH]c2=O)nn1 [1-5), 2′-deoxy-5-[1-((o-methylphenyl)methyl)-1H-1,2,3-triazol-4-yl]-uridine] | Unstable white opaque gel | 3 wt % |  |  |  |  | 
O=c1[nH]c(=O)n([C@H]2C[C@H](O)[C@@H](CO)O2)cc1-c1cn(Cc2ccccc2)nn1 [1-4), 2′-deoxy-5-[1-(phenylmethyl)-1H-1,2,3-triazol-4-yl]-uridine] | White opaque gel | 0.3 wt % | lamellar structure |  |  |  | 
CCCCc1ccc(Cn2cc(-c3cn([C@H]4C[C@H](O)[C@@H](CO)O4)c(=O)[nH]c3=O)nn2)cc1 [1-10), 2′-deoxy-5-[1-((p-butylphenyl)methyl)-1H-1,2,3-triazol-4-yl]-uridine] | White opaque gel | 0.8 wt % | lamellar structure | good gelation ability |  |  | 
Cc1cccc(Cn2cc(-c3cn([C@H]4C[C@H](O)[C@@H](CO)O4)c(=O)[nH]c3=O)nn2)c1 [1-6), 2′-deoxy-5-[1-((m-methylphenyl)methyl)-1H-1,2,3-triazol-4-yl]-uridine] | Unstable white opaque gel | 1 wt % |  |  |  |  | 
CCc1ccc(Cn2cc(-c3cn([C@H]4C[C@H](O)[C@@H](CO)O4)c(=O)[nH]c3=O)nn2)cc1 [1-9), 2′-deoxy-5-[1-((p-ethylphenyl)methyl)-1H-1,2,3-triazol-4-yl]-uridine] | White opaque gel | 0.2 wt % | fiber structure | good gelation ability; also recorded: best gelation ability | looser fiber structure having a larger void volume | 201 °C | 200 °C
Cc1ccc(Cn2cc(-c3cn([C@H]4C[C@H](O)[C@@H](CO)O4)c(=O)[nH]c3=O)nn2)cc1 [1-7), 2′-deoxy-5-[1-((p-methylphenyl)methyl)-1H-1,2,3-triazol-4-yl]-uridine] | White opaque gel | 0.6 wt % | lamellar structure | good gelation ability |  |  | 
CCc1ccccc1Cn1cc(-c2cn([C@H]3C[C@H](O)[C@@H](CO)O3)c(=O)[nH]c2=O)nn1 [1-8), 2′-deoxy-5-[1-((o-ethylphenyl)methyl)-1H-1,2,3-triazol-4-yl]-uridine] | Unstable white opaque gel | 2 wt % |  |  |  |  | 
